Test results published in patent US20250381274A1 (priority 2022, published 2025).
“Also recorded” adds a separate entry of the source. Like-named read-outs stand apart in the source and are kept apart here.

Columns and labels:
[1] = tested on: corneal buttons; design: species or system rabbit; details: for equilibrium modulus change vs paired control (words): Dresden protocol (riboflavin/R5P + UVA); for viscoelastic ratio change vs paired control (words): Dresden protocol (riboflavin/R5P + UVA) vs R5P-exposed-only control
Protocol: • 3 rabbits, (n=8 pairs of 3 mm biopsy punched corneal buttons) • Laser Treatments: • Fidelity II, 1069 nm, 450 mW • Focusing: Marker/spark around, not touching the tissue • Objective: ZEISS 40X, NA=0.1463 • Z: increments 20 μm, 5 layers (several intervals) • 1stlayer 15 μm below surface of focus sparking • XY: 10 μm zigzag grid, 3 mm radius circle • With ˜12 gram compression • Motor speed 2.6 mm/s, full circle treatments: ˜25*5 mins • Sample Preparation: • −3 mm biopsy punch (1BT) • not connected to IV system • Prior to LT: 30 mins in 20% w/w Dextran 500 in PBS • 30 mins in 20% w/w ribose in DPBS (˜1.7M) • Post LT: Trypan blue is used to mark endothelium side • Imaged on the same day in DPBS • Overnight storage in DPBS in 4C fridge • 3 hrs prior to indentation, in room temp PBS • Piuma nano-indentation: • For each cornea button, the average of up to 16 indentations are acquired as
• 3 rabbits, (n=10 pairs of 3 mm biopsy punched corneal buttons) • 3 mm biopsy punch • not connected to IV system • Treatment Protocol-1 hr submerged in 20% w/v Ribose for all samples • 1 hr of UV-A lamp irradiation (control was not under UV) • Post Treatment Trypan blue is used to mark endothelium side • Imaged on the same day in DPBS • Overnight storage in DPBS in 4C fridge • 3 hrs prior to indentation, in room temp PBS • Piuma nano-indentation: • For each cornea button, the average of up to 16 indentations are acquired as representative modulus • The average of the representative modulus are presented in appended FIGS. 1-25.
Nano-Indentation: The corneal buttons were stored in PBS in a 4C fridge overnight for hydration equilibrium. Indentations of 5 μm depth using 29-35 μm diameter spherical indenters were performed on the anterior surface of the cornea buttons to acquire 25-second load-relaxation curves. For each button, the average of up to 16 indentations was used as the representative result. The equilibrium modulus and the viscoelastic ratio, defined as equilibrium modulus over instantaneous modulus, were calculated and compared.
Nanoindentation: Indentations were performed on the anterior surface of the cornea buttons. The equilibrium modulus E∞, instantaneous modulus Eo, and the viscoelastic ratio E∞/Eo, were calculated and compared.
After overnight incubation in PBS at 4C to reach equilibrium hydration, corneal buttons in Group A were allowed to return to room temperature the next morning after the respective treatment days while glued to the bottom of a petri-dish with the anterior surface of the corneal button facing upward. A displacement-controlled indenter (Piuma, Optics 11, Amsterdam, The Netherlands) was used to perform micro-indentations on top of the sample surface submerged in PBS; for each sample, multiple tests were performed following an array of 16 equally spaced (4×4) contact points with a spacing of 100 μm to 150 μm, covering roughly a 0.4×0.4 mm^2 area at the center of each corneal button. A spherical glass probe with a 34 μm radius and 0.2 N/m stiffness was used for samples in Group 1A; another spherical glass probe with a 25.5 μm radius and 4.09 N/m stiffness was used for Group 1B, 1C, 1D, and 2C. The indentation process at each contact point was comprised of three consecutive steps of loading Piezo movement of 5 μm for 2 seconds, holding time of 5 s, and unloading for 2 seconds. The load-relaxation curves obtained after indenting each point were then processed using a viscoelastic model to obtain equilibrium modulus and viscoelastic ratio following a fitting algorithm developed by Oyen.

[2] = tested on: corneal tissues; experiment: Multiphoton/confocal imaging: autofluorescence and second harmonic generation signal; design: species or system rabbit; details: anterior 100 μm
Source text: • The grey value of the top 100 μm (11 Z-stacks) of the cornea button was summed; • The average of the grey value summations are presented in appended FIGS. 1-25. • […] • The average of the grey value summations and Representative images at ˜600*600*100 μm in x, y, z are presented in appended FIGS. 1-25. The autofluorescence and second harmonic generation (SHG) signals of the corneal tissues in Group A were investigated to reveal the presence of CxLs and structural changes in collagenous ECM after hydration equilibrium in PBS on the same night of individual treatment days. Imaging was performed with a Nikon TI Eclipse inverted microscope using a Ti: Sapphire laser Chameleon Ultra II at 860 nm as the light source and a Nikon Apo LWD 20× objective for focusing. The emission filter was set at the FITC channel (475-650 nm, peak 525 nm) for autofluorescence signal collection and at the DAPI channel (400-600 nm, peak at 457 nm) for SHG signal collection. The XY scanning area for each sample was 635 μm by 635 μm, and Z scanning was 100 μm deep with 10 μm increments (stack of 11 images per sample). The summation of the average grey value processed in Image J at each layer was used as the representative signal strength for each sample.

Substance | equilibrium modulus change ([1]; 20% Dextran + femtosecond laser 755-760 nm ~850 mW, coverslip, without oxygen) | second harmonic generation signal intensity change vs paired control (words) ([2]; Dresden protocol vs R5P exposed control) | autofluorescence signal intensity change vs paired control (words) ([2]; Dresden protocol vs R5P only control) | equilibrium modulus change vs paired control (words) [1] | viscoelastic ratio change vs paired control (words) [1] | viscoelastic ratio change vs paired control (words) ([1]; listed as riboflavin) | equilibrium modulus change vs paired control (words) ([1]; listed as riboflavin) | equilibrium modulus ([1]; Group 1D positive control: Dresden protocol, 0.1% R5P in 20% dextran 500 + UVA) [kPa]
Dextran | significantly increased the equilibrium modulus of the cornea, but the magnitudes are small |  |  |  |  |  |  | 
riboflavin-5-phosphate [R5P, reference compound] |  | increased SHG signal; also recorded: statistically significant increase; also recorded: Statistical significance | increased; also recorded: Statistical significance | statistically significant differences | more elastic response; also recorded: significantly different time-dependent elastic response | significant increase; also recorded: significantly increased | significantly increased | 100
